# Literature values in patent publication US20070142355A1, “Association of a sinus node If curent inhibitor and an angiotensin converting enzyme inhibitor, and pharmaceutical compositions containing it” (LES LABORATOIRES SERVIER, priority 2005, published 2007).
# Conditions: ivabradine alone, as generally established in clinical trials
smiles,measurement,value
"COc1cc2c(cc1OC)CC(=O)N(CCCN(C)C[C@H]1Cc3cc(OC)c(OC)cc31)CC2 [ivabradine, 3-{3-[{[(7S)-3,4-dimethoxy-bicyclo[4.2.0]octa-1,3,5-trien-7-yl]methyl}(methyl)amino]propyl}-7,8-dimethoxy-1,3,4,5-tetrahydro-2H-3-benzazepin-2-one]",slight increase in systolic arterial pressure,~1 mmHg
